Measured values: PubChem BioAssay (NCI)
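Here, GI50 denotes the concentration required for 50% inhibition of growth. TGI denotes the concentration required for complete inhibition of growth.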

Experiments:
Test in all cases: NCI-60 cell line screen, 384-well format
[1] = tested on: OVCAR-4 ovarian
[2] = tested on: MDA-MB-435 melanoma
[3] = tested on: SK-MEL-5 melanoma
[4] = tested on: A498 renal
[5] = tested on: OVCAR-8 ovarian
[6] = tested on: NCI-H322M lung
[7] = tested on: RPMI-8226 leukemia
[8] = tested on: OVCAR-3 ovarian
[9] = tested on: KM12 colon
[10] = tested on: U251 glioblastoma
[11] = tested on: HL-60(TB) leukemia
[12] = tested on: ACHN renal
[13] = tested on: NCI-H460 NSCLC

SMILES	GI50 [1]	TGI [1]	GI50 [2]	TGI [2]	GI50 [3]	TGI [3]	GI50 [4]	TGI [4]	GI50 [5]	TGI [5]	GI50 [6]	TGI [6]	GI50 [7]	TGI [7]	GI50 [8]	TGI [8]	GI50 [9]	TGI [9]	GI50 [10]	TGI [10]	further results
Cc1c(Br)c(Br)c2c3c1nc(N1CCNCC1)n3CCC2	1.77 µM	3.51 µM	1.85 µM	3.27 µM	1.25 µM	2.51 µM	0.792 µM	2.07 µM	1.47 µM	2.85 µM	1.73 µM	3.42 µM	0.81 µM	2.27 µM	1.42 µM	2.74 µM	1.41 µM	2.73 µM	1.66 µM	3.04 µM	GI50 [11]: 0.49 µM; TGI [11]: 0.998 µM; GI50 [12]: 1.37 µM; TGI [12]: 2.73 µM; GI50 [13]: 1.39 µM; TGI [13]: 2.73 µM
CN1C(=O)[C@@H](CC2CCCC2)N(C2CCCC2)c2nc(Nc3cc(Cl)c(O)c(Cl)c3)ncc21	5.33 µM	37.1 µM	7.55 µM	> 100 µM	4.57 µM	16.4 µM	10.1 µM	27.1 µM	4.99 µM	60.5 µM	15.4 µM	97.8 µM	1.8 µM	4.17 µM	4.55 µM	15.8 µM	4.9 µM	24.6 µM	5.66 µM	19.1 µM	GI50 [11]: 1.75 µM; TGI [11]: 3.17 µM; GI50 [12]: 6.38 µM; TGI [12]: 26.2 µM; GI50 [13]: 6.22 µM; TGI [13]: 19.4 µM
